BindingDB's records for doi:10.1021/jm010936y (2002)
pKi: −log10 of the molar value.

Biological target: Neuronal acetylcholine receptor alpha3/beta4 (Sus scrofa)
Assay: Binding affinity to Nicotinic acetylcholine receptor alpha3-beta4 using +/-[3H]epibatidine as radioligand in pig adrenal gland

| SMILES | pKi |
| --- | --- |
| C1=C(c2ccnnc2)C2CC[C@H](CC1)N2 [2-Pyridazin-4-yl-9-aza-bicyclo[4.2.1]non-2-ene] | 8.60 |
| C1=C(c2cncnc2)C2CC[C@H](CC1)N2 [2-Pyrimidin-5-yl-9-aza-bicyclo[4.2.1]non-2-ene] | 7.70 |
